Measured values: patent publication US20250250230A1, “HETEROCYCLIC COMPOUND” (TAKEDA PHARMACEUTICAL COMPANY LIMITED, priority 2022, published 2025)

The compounds below were run against T1, human orexin type 2 receptor (Homo sapiens, UniProt O43614) (assay: Measurement of orexin type 2 receptor agonist activity (calcium fluorescence, Fluo-4 AM, FDSS)). Settings: test compound 3 μM; CHO cells expressing human OX2 receptor; DMSO = 0%, orexin A (human) = 100%.
T1 construct: expressed in transfected cells
T1 sequence (O43614 1-444): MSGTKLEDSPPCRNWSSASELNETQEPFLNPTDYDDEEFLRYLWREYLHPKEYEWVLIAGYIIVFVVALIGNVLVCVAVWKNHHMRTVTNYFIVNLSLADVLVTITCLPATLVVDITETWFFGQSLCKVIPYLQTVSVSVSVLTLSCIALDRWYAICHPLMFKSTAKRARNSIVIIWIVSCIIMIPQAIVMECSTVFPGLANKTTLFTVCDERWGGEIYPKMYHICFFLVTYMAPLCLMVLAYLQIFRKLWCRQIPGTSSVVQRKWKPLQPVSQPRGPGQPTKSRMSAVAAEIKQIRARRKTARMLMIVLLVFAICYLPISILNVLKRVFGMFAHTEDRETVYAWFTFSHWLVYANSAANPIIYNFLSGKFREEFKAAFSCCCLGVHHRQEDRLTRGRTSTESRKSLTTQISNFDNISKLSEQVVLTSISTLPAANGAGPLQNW
Format: cell-based
In short: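 Agonist response scaled between vehicle (0%) and human orexin A at 10 nM final (100%), from 2-min kinetic Fluo-4 fluorescence reads. Stable hOX2R CHO-K1 clone, dye-loaded in HBSS/20 mM HEPES/0.1% BSA with 1.25 mM probenecid before compound addition.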

| OX2R agonist activity (3 μM, %) [%] | Compound |
| --- | --- |
| 105 | CS(=O)(=O)NC1COCCN(C(=O)[C@@H]2C[C@H]2c2ccccc2-c2c(F)cccc2F)C1 (stereo partly drawn) [Example 249, N-{(6R)-4-[(1R,2R)-2-(2′,6′-difluoro[1,1′-biphenyl]-2-yl)cyclopropane-1-carbonyl]-1,4-oxazepan-6-yl}methanesulfonamide, or N-{(6S)-4-[(1R,2R)-2-(2′,6′-difluoro[1,1′-biphenyl]-2-yl)cyclopropane-1-carbonyl]-1,4-oxazepan-6-yl}methanesulfonamide] |
| 99 | CS(=O)(=O)N[C@H]1CCN(C(=O)C2CC2c2c(F)cccc2-c2c(F)cccc2F)C1 (single isomer, unassigned) [Example 195, N-{(3S)-1-[(1R,2R)-2-(2′,3,6′-trifluoro[1,1′-biphenyl]-2-yl)cyclopropane-1-carbonyl]pyrrolidin-3-yl}methanesulfonamide, or N-{(3S)-1-[(1S,2S)-2-(2′,3,6′-trifluoro[1,1′-biphenyl]-2-yl)cyclopropane-1-carbonyl]pyrrolidin-3-yl}methanesulfonamide] |
| 85 | COCS(=O)(=O)NC1CCN(C(=O)C2CC2c2ccccc2-c2c(F)cccc2F)C1 (mixture of isomers) [Example 227, a mixture of N-{(3S)-1-[(1R,2R)-2-(2′,6′-difluoro[1,1′-biphenyl]-2-yl)cyclopropane-1-carbonyl]pyrrolidin-3-yl}-1-methoxymethanesulfonamide and N-{(3S)-1-[(1S,2S)-2-(2′,6′-difluoro[1,1′-biphenyl]-2-yl)cyclopropane-1-carbonyl]pyrrolidin-3-yl}-1-methoxymethanesulfonamide] |
| 104 | Cc1ccc(C2(F)CC2C(=O)N2C[C@@H](C)[C@H]2CNS(C)(=O)=O)c(-c2c(F)cccc2F)c1 (stereo partly drawn) [Example 396, N-({(2S,3R)-1-[(1R,2R)-2-(2′,6′-difluoro-5-methyl[1,1′-biphenyl]-2-yl)-2-fluorocyclopropane-1-carbonyl]-3-methylazetidin-2-yl}methyl)methanesulfonamide, or N-({(2S,3R)-1-[(1S,2S)-2-(2′,6′-difluoro-5-methyl[1,1′-biphenyl]-2-yl)-2-fluorocyclopropane-1-carbonyl]-3-methylazetidin-2-yl}methyl)methanesulfonamide] |
| 70 | CS(=O)(=O)NC1CCN(C(=O)C2CC2c2ccccc2-c2cccc(F)c2F)C1 (racemic) [Example 81, a mixture of rac-N-{(3R)-1-[(1R,2R)-2-(2′,3′-difluoro[1,1′-biphenyl]-2-yl)cyclopropane-1-carbonyl]pyrrolidin-3-yl}methanesulfonamide and rac-N-{(3S)-1-[(1R,2R)-2-(2′,3′-difluoro[1,1′-biphenyl]-2-yl)cyclopropane-1-carbonyl]pyrrolidin-3-yl}methanesulfonamide] |
| 109 | C[C@H]1C[C@H](NS(C)(=O)=O)CN1C(=O)[C@@H]1C[C@H]1c1ccccc1-c1c(F)cccc1F [Example 262, N-{(3S,5S)-1-[(1R,2R)-2-(2′,6′-difluoro[1,1′-biphenyl]-2-yl)cyclopropane-1-carbonyl]-5-methylpyrrolidin-3-yl}methanesulfonamide] |
| 107 | CS(=O)(=O)NC1CCCN(C(=O)C2CC2c2sccc2-c2c(F)cccc2F)CC1 (racemic) [Example 221, a mixture of rac-N-[(4R)-1-{(1R,2R)-2-[3-(2,6-difluorophenyl)thiophen-2-yl]cyclopropane-1-carbonyl}azepan-4-yl]methanesulfonamide and rac-N-[(4S)-1-{(1R,2R)-2-[3-(2,6-difluorophenyl)thiophen-2-yl]cyclopropane-1-carbonyl}azepan-4-yl]methanesulfonamide] |
| 96 | CCS(=O)(=O)NC[C@@H]1[C@@H](O)CN1C(=O)[C@@H]1C[C@@]1(F)c1ccccc1-c1c(F)cccc1F [Example 382, N-({(2R,3S)-1-[(1S,2S)-2-(2′,6′-difluoro[1,1′-biphenyl]-2-yl)-2-fluorocyclopropane-1-carbonyl]-3-hydroxyazetidin-2-yl}methyl)ethanesulfonamide] |
| 97 | CS(=O)(=O)NC1CCCCN(C(=O)C2CC2c2ccccc2-c2c(F)cccc2F)C1 (racemic) [Example 41, a mixture of rac-N-{(3R)-1-[(1R,2R)-2-(2′,6′-difluoro[1,1′-biphenyl]-2-yl)cyclopropane-1-carbonyl]azepan-3-yl}methanesulfonamide and rac-N-{(3S)-1-[(1R,2R)-2-(2′,6′-difluoro[1,1′-biphenyl]-2-yl)cyclopropane-1-carbonyl]azepan-3-yl}methanesulfonamide] |
| 90 | CC[C@@H]1CN(C(=O)[C@@H]2C[C@@]2(F)c2ccccc2-c2c(F)cccc2F)[C@H]1CNS(C)(=O)=O [Example 381, N-({(2R,3R)-1-[(1S,2S)-2-(2′,6′-difluoro[1,1′-biphenyl]-2-yl)-2-fluorocyclopropane-1-carbonyl]-3-ethylazetidin-2-yl}methyl)methylsulfonamide] |
| 95 | CS(=O)(=O)N[C@H]1CCCN(C(=O)[C@@H]2C[C@H]2c2ccccc2-c2c(F)cccc2F)C1 [Example 24, N-{(3S)-1-[(1R,2R)-2-(2′,6′-difluoro [1,1′-biphenyl]-2-yl)cyclopropane-1-carbonyl]piperidin-3-yl}methanesulfonamide] |
| 87 | CS(=O)(=O)N[C@@H]1CN(C(=O)[C@@H]2C[C@H]2c2ccccc2-c2c(F)cccc2F)C[C@H]1F [Example 279, N-{(3R,4R)-1-[(1R,2R)-2-(2′,6′-difluoro[1,1′-biphenyl]-2-yl)cyclopropane-1-carbonyl]-4-fluoropyrrolidin-3-yl}methanesulfonamide] |
| 101 | CS(=O)(=O)N[C@H]1C[C@H](O)CN(C(=O)[C@@H]2C[C@H]2c2ccccc2-c2c(F)cccc2F)C1 [Example 319, N-{(3S,5S)-1-[(1R,2R)-2-(2′,6′-difluoro[1,1′-biphenyl]-2-yl)cyclopropane-1-carbonyl]-5-hydroxypiperidin-3-yl}methanesulfonamide] |
| 99 | CS(=O)(=O)NC[C@@H]1[C@H](CO)CN1C(=O)[C@@H]1C[C@@]1(F)c1ccccc1-c1c(F)cccc1F [Example 384, N-{[(2S,3R)-1-[(1S,2S)-2-(2′,6′-difluoro[1,1′-biphenyl]-2-yl)-2-fluorocyclopropane-1-carbonyl]-3-(hydroxymethyl)azetidin-2-yl]methyl}methanesulfonamide] |
| 90 | CCS(=O)(=O)NC(C)[C@H]1CCN1C(=O)[C@@H]1C[C@H]1c1ccccc1-c1c(F)cccc1F (stereo partly drawn) [Example 361, N-[(1R)-1-{(2R)-1-[(1R,2R)-2-(2′,6′-difluoro[1,1′-biphenyl]-2-yl)cyclopropane-1-carbonyl]azetidin-2-yl}ethyl]ethanesulfonamide, or N-[(1S)-1-{(2R)-1-[(1R,2R)-2-(2′,6′-difluoro[1,1′-biphenyl]-2-yl)cyclopropane-1-carbonyl]azetidin-2-yl}ethyl]ethanesulfonamide] |
